SMILES strings stand for the structures. Read-outs that look alike come from different tables or passages of the source.

Assay [1] deals with STIB719/ILRAD560 T. vivax (drug sensitive) strain. As to the kind of experiment: Ex vivo Alamar Blue 48 h drug sensitivity assay for T. vivax. The following applies: Trypanosoma vivax, ex vivo bloodstream form from mouse, 45 hrs + 3 hrs Resazurin, 37° C., read-out: IC50: I Hypoxanthine Incorporation T. vivax 2 d. Format: cell-based. (In general: Resazurin is reduced to fluorescent resorufin, in cell work by metabolically active cells.)

In assay [2] the test system is IL3000 T. congolense (drug sensitive) strain. As to the kind of experiment: In vitro Alamar Blue 72 h drug sensitivity assay for T. congolense. Format: cell-based, Trypanosoma congolense. The following applies: bloodstream form, 69 h + 3 h Resazurin, 34° C., read-out: IC50: I Org. Growth T. congolense 3 d. The essentials:
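Bloodstream-form trypanosomes in HMI medium with 20% bovine serum were exposed to compounds for 69 h at 34° C, 5% CO2, then resazurin for another 3 h. Fluorescence read at ex 536/em 588 nm; IC50 from 11-point sigmoidal dose-response curves, at least three independent runs.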

As for `CCCc1c(C(=O)N[C@H](C(=O)OCc2ccc(F)cc2)C(C)C)ccc2c1B(O)OC2` [Example 6-064, 4-fluorobenzyl (1-hydroxy-7-propyl-1,3-dihydrobenzo[c][1,2]oxaborole-6-carbonyl)-L-valinate], the IC50 in assay [1] was in the range of 0.51 to 49.9 nM; in assay [2] (Trypanosoma congolense, 72 h) it was 0.51 to 9.99 nM.

As for `Cc1c(C(=O)N[C@H](C(=O)OCc2cnc(C(F)(F)F)nc2)C(C)C)ccc2c1B(O)OC2` [Example 6-159, (2-(Trifluoromethyl)pyrimidin-5-yl)methyl (1-hydroxy-7-methyl-1,3-dihydrobenzo[c][1,2]oxaborole-6-carbonyl)-L-valinate], the IC50 in assay [1] was under 0.5 nM; in assay [2] (Trypanosoma congolense, 72 h), under 0.5 nM.

As to `CC(C)[C@H](NC(=O)c1ccc2c(c1C(F)(F)F)B(O)OC2)C(=O)OCc1ccc(F)cc1` [Example 6-070, 4-Fluorobenzyl (1-hydroxy-7-(trifluoromethyl)-1,3-dihydrobenzo[c][1,2]oxaborole-6-carbonyl)-L-valinate], the IC50 in assay [1] lay within 50 to 2000 nM; in assay [2] (Trypanosoma congolense, 72 h), 10 to 5000 nM.

Turning to `COC(=O)[C@@H](Cc1ccccc1)NC(=O)c1ccc2c(c1)B(O)OC2` [Example 6-018, Methyl (1-hydroxy-1,3-dihydrobenzo[c][1,2]oxaborole-6-carbonyl)-D-phenylalaninate], the IC50 in assay [1] was 50 to 2000 nM; in assay [2] (Trypanosoma congolense, 72 h), 10 to 5000 nM.

On to `C[C@H](OC(=O)[C@H](Cc1ccccc1)NC(=O)c1ccc2c(c1)B(O)OC2)c1ccccc1` [Example 6-024, (S)-1-phenylethyl (1-hydroxy-1,3-dihydrobenzo[c][1,2]oxaborole-6-carbonyl)-L-phenylalaninate], for which the IC50 was in the range of 50 to 2000 nM in assay [1] and 0.51 to 9.99 nM in assay [2] (Trypanosoma congolense, 72 h).

Turning to `Cc1c(C(=O)N[C@H](C(=O)OCc2ccc(F)cc2)[C@H](C)O)ccc2c1B(O)OC2` [Example 6-088, 4-Fluorobenzyl (1-hydroxy-7-methyl-1,3-dihydrobenzo[c][1,2]oxaborole-6-carbonyl)-L-allothreoninate], the IC50 in assay [1] lay within 0.51 to 49.9 nM; in assay [2] (Trypanosoma congolense, 72 h), 0.51 to 9.99 nM.

Consider `CC(C)[C@H](NC(=O)c1ccc2c(c1)B(O)OC2)C(=O)OCc1ccc(F)cc1F` [Example 6-031, 2,4-Difluorobenzyl (1-hydroxy-1,3-dihydrobenzo[c][1,2]oxaborole-6-carbonyl)-L-valinate], for which the IC50 in assay [1] was in the range of 0.51 to 49.9 nM; in assay [2] (Trypanosoma congolense, 72 h) it was 0.51 to 9.99 nM.

`CCc1c(C(=O)N[C@H](C(=O)OCc2ccc(F)cc2)C(C)C)ccc2c1B(O)OC2` [Example 6-052, 4-Fluorobenzyl (7-ethyl-1-hydroxy-1,3-dihydrobenzo[c][1,2]oxaborole-6-carbonyl)-L-valinate]: the IC50 in assay [1] was under 0.5 nM; in assay [2] (Trypanosoma congolense, 72 h), under 0.5 nM.

For the compound `COC(=O)[C@@H](CCc1ccccc1)NC(=O)c1ccc2c(c1)B(O)OC2` [Example 6-025, Methyl (R)-2-(1-hydroxy-1,3-dihydrobenzo[c][1,2]oxaborole-6-carboxamido)-4-phenylbutanoate], the IC50 is over 2000 nM in assay [1] and 10 to 5000 nM in assay [2] (Trypanosoma congolense, 72 h).

On to `COC(=O)[C@H](Cc1ccccc1)NC(=O)c1ccc2c(c1)B(O)OC2` [Example 6-026, Methyl (1-hydroxy-1,3-dihydrobenzo[c][1,2]oxaborole-6-carbonyl)-L-phenylalaninate], for which the IC50 in assay [1] lay in the range of 50 to 2000 nM; in assay [2], 0.51 to 9.99 nM.

In the case of `COC(=O)[C@H](C)NC(=O)c1ccc2c(c1)B(O)OC2` [Example 6-016, Methyl (1-hydroxy-1,3-dihydrobenzo[c][1,2]oxaborole-6-carbonyl)-L-alaninate], the IC50 is over 2000 nM in assay [1] and 10 to 5000 nM in assay [2] (Trypanosoma congolense, 72 h).

For `COC(=O)[C@H](CCc1ccccc1)NC(=O)c1ccc2c(c1)B(O)OC2` [Example 6-027, Methyl (S)-2-(1-hydroxy-1,3-dihydrobenzo[c][1,2]oxaborole-6-carboxamido)-4-phenylbutanoate], the IC50 is 50 to 2000 nM in assay [1] and 10 to 5000 nM in assay [2] (Trypanosoma congolense, 72 h).

As to `Cc1c(C(=O)N[C@H](C(=O)OCc2cc(F)cc(F)c2)C(C)C)ccc2c1B(O)OC2` [Example 6-048, 3,5-Difluorobenzyl (1-hydroxy-7-methyl-1,3-dihydrobenzo[c][1,2]oxaborole-6-carbonyl)-L-valinate], the IC50 in assay [1] is under 0.5 nM; in assay [2] (Trypanosoma congolense, 72 h) it was under 0.5 nM.

On to `Cc1c(C(=O)N[C@H](C(=O)OCc2ccc(F)c(Cl)c2)C(C)C)ccc2c1B(O)OC2` [Example 6-051, 3-Chloro-4-fluorobenzyl (1-hydroxy-7-methyl-1,3-dihydrobenzo[c][1,2]oxaborole-6-carbonyl)-L-valinate], for which the IC50 is under 0.5 nM in assay [1] and under 0.5 nM in assay [2] (Trypanosoma congolense, 72 h).

(Values after patent publication US11578087B2, “Oxaborole esters and uses thereof” (priority 2016, dated 2023).)
